Test results as given in patent US20260256778A1 (AbbVie Inc., priority 2023, published 2026).
Values after ≈ are worked out from the molar mass of the structure shown. Where two headings read alike, the source gives them in different places.

Key:
[1] = tested on: inflammatory chemotactic proteins (CXCL9 and 10) and T-cell activation markers (IL12B and TNFSF9); experiment: Serum type 1 inflammation biomarkers in the Phase 2 study; format: in vivo, human
From the text: (§1) No differences were apparent for active vs. stable subjects.

CXCL10 = experiment: Serum CXCL10 level in the Phase 2 study; format: in vivo, human; conditions: by week 2, all dose groups
From the text: as §1

facial vitiligo area = experiment: 3D digital imaging substudy of facial vitiligo area (Example 3); format: in vivo, human; design: F-VASI, Wk 24: scale not given here; conditions: for percent reduction of facial vitiligo area from Baseline by 3D imaging / Treatment effect size, Cohen's d of 3D Imaging / Treatment effect size, Cohen's d of F-VASI: Week 24
From the text: Specifically, multiple stereoscopic images were captured by a proprietary optical 3D scanner for a subset of patients in the referenced study. The data acquisition procedure and determination of vitiligo area using the 3D platform were as follows: • 1. Subject was scanned, acquiring 2D raw color images with real time feedback to generate 3D gray low-resolution model • 2. Full resolution color model generated and uploaded to cloud • 3. Web application opened by investigator, who manually selected threshold for each region of face. • 4. The detected vitiligo area was measured and results reported
To accomplish these objectives, twenty-seven subjects were enrolled into the 3D imaging substudy across 6 clinical sites. Twenty-one subjects had high quality 3D images available at Week 24 for analysis. Subjects who enrolled in the 3D digital imaging substudy were randomized as per the main protocol. The demographics, including Fitzpatrick skin types, and baseline disease characteristics in the 3D imaging substudy are provided in Table 9. With reference to Table 9, the demographics were in general consistent with the overall study population.
The quality and completeness of each scan was assessed by a visual inspection of the resulting 3D image by the technician and/or investigator, utilizing Wood's lamp visualization to set a threshold at Baseline, defined as the intensity value used to distinguish which 3D pixels within the image belong to the vitiligo area or to the normal skin area. The threshold value determined by the investigator at Baseline remained constant and applied to all post-baseline 3D images during the treatment period to reflect changes in the pigmentation. Each 3D image included 10 predefined anatomic regions of the face: forehead, left eye, right eye, left lateral cheek/temple, left middle cheek, nose, right middle cheek, right lateral cheek/temple, upper lip, and chin. Results are presented as the sum of vitiligo area measurement (cm^2) across all anatomic regions of the face.

[2] = Solubility of upadacitinib in different aqueous media at 37° C.; format: physicochemical
[3] = tested on: non-segmental vitiligo (NSV); conditions: for Percent CFB in F-VASI; LSMEAN (SE): Week 24, MMRM; for F-VASI 75; (%): Week 24, NRI
[4] = 22 mg QD, one representative subject, Baseline to Week 24
[5] = Placebo (N = 3) vs 6 mg (N = 7)
[6] = Placebo (N = 3) vs 11 mg (N = 6)
[7] = Placebo (N = 3) vs 22 mg (N = 5)
[8] = 6 mg QD, Week 24, change from baseline, 44 patients
[9] = 11 mg QD, Week 24, change from baseline, 45 patients
[10] = 22 mg QD, Week 24, change from baseline, 34 patients

CC[C@@H]1CN(C(=O)NCC(F)(F)F)C[C@@H]1c1cnc2cnc3[nH]ccc3n12 [Upadacitinib, (3S,4R)-3-ethyl-4-(3H-imidazo[1,2-a]pyrrolo[2,3-e]pyrazin-8-yl)-N-(2,2,2-trifluoroethyl) pyrrolidine-1-carboxamide]
Inhibition of type 1 inflammation biomarkers ([1]; 11 mg dose): maximal inhibition was achieved
Change from baseline in CXCL9, CXCL10, IL12B and TNFSF9 ([1]; all upadacitinib doses, from week 2 through week 24, data not shown): Reductions from baseline were observed
CXCL10 levels (CXCL10): reduced to those in healthy volunteers
% Change Facial Vitiligo Area by 3D Imaging at Week 24, Mean (facial vitiligo area; 6 mg QD, N 7): −15.20%
% Change Facial Vitiligo Area by 3D Imaging at Week 24, Median (facial vitiligo area; 6 mg QD, N 7): −9.85%
percent reduction of facial vitiligo area from Baseline by 3D imaging (facial vitiligo area; 6 mg QD): 15.2%
% Change Facial Vitiligo Area by 3D Imaging at Week 24, Mean (facial vitiligo area; 11 mg QD, N 6): −34.96%
% Change Facial Vitiligo Area by 3D Imaging at Week 24, Median (facial vitiligo area; 11 mg QD, N 6): −37.38%
percent reduction of facial vitiligo area from Baseline by 3D imaging (facial vitiligo area; 11 mg QD): 34.96%
% Change Facial Vitiligo Area by 3D Imaging at Week 24, Mean (facial vitiligo area; 22 mg QD, N 5): −23.00%
% Change Facial Vitiligo Area by 3D Imaging at Week 24, Median (facial vitiligo area; 22 mg QD, N 5): −27.2%
percent reduction of facial vitiligo area from Baseline by 3D imaging (facial vitiligo area; 22 mg QD): 23%
Cherry 3D imaging vitiligo area, % change (facial vitiligo area; [4]): −27.2%
F-VASI, % change (facial vitiligo area; [4]): −24.62%
Cherry 3D imaging vitiligo area, % change (facial vitiligo area; 22 mg QD, one representative subject, Baseline to Week 24, listed as upadacitinib): −27.20%
Cherry 3D imaging vitiligo area, Wk 24 (facial vitiligo area; 22 mg QD, one representative subject, Fitzpatrick Type III, baseline 215.84): 157.13 cm^2
F-VASI, Wk 24 (facial vitiligo area; 22 mg QD, one representative subject, baseline 1.3): 0.98
percent change from baseline in vitiligo extent score (VES) by 3D imaging evaluation (facial vitiligo area; 11 and 22 mg versus placebo, preliminary): greater percent change from baseline
Treatment effect size, Cohen's d of 3D Imaging (facial vitiligo area; [5]): 0.50
Treatment effect size, Cohen's d of F-VASI (facial vitiligo area; [5]): 0.76
Treatment effect size, Cohen's d of 3D Imaging (facial vitiligo area; [6]): > 0.8
Treatment effect size, Cohen's d of F-VASI (facial vitiligo area; [6]): 0.13
Treatment effect size, Cohen's d of 3D Imaging (facial vitiligo area; Placebo (N = 3) vs 11 mg (N = 6), listed as UPA): 1.36
Treatment effect size, Cohen's d of 3D Imaging (facial vitiligo area; [7]): > 0.8
Treatment effect size, Cohen's d of F-VASI (facial vitiligo area; [7]): 0.61
Treatment effect size, Cohen's d of 3D Imaging (facial vitiligo area; Placebo (N = 3) vs 22 mg (N = 5), listed as UPA): 1.02
solubility ([2]; 50 mM carbonate buffer, 37 °C, pH 9.11, aqueous buffer, thermodynamic from solid): 199 ± 6 µg/mL (≈ 523 µM)
Solubility (in words) ([2]; at low pH): good solubility
VitiQoL LS mean change ([3]; 6 mg): −7.5%
Percent CFB in F-VASI; LSMEAN (SE) ([3]; 6 mg QD oral): −21.96 (5.162) Percent
CFB in VitiQoL Total Score; LSMEAN (SE) ([3]; 6 mg QD, Week 24): −7.5 (2.27)
Percent CFB in T-VASI; LSMEAN (SE) ([3]; 6 mg QD, Week 24): −13.87 (3.332) Percent
T-VASI 50; (%) ([3]; 6 mg QD, Week 24): 6.1%
Δ vs PBO, CFB in VitiQoL Total Score ([3]; 6 mg QD, Week 24): Δ = −1.9;
Δ vs PBO, F-VASI 50 ([3]; 6 mg QD, Week 24): Δ = 6.6;
Δ vs PBO, F-VASI 75 ([3]; 6 mg QD, Week 24): Δ = 6.9;
Δ vs PBO, Percent CFB in F-VASI ([3]; 6 mg QD, Week 24): Δ = −7.60;
Δ vs PBO, Percent CFB in T-VASI ([3]; 6 mg QD, Week 24): Δ = −7.45;
Δ vs PBO, T-VASI 50 ([3]; 6 mg QD, Week 24): Δ = 3.7;
Δ vs PBO, much better or a little better on PaGIC ([3]; 6 mg QD, Week 24): Δ = 14.3%
Δ vs PBO, much better or a little better on PhGIC ([3]; 6 mg QD, Week 24): Δ = 18%
Achieving much better or a little better on PaGIC (PaGIC-V score of 1 or 2), responders n ([3]; 6 mg QD, Week 24, N = 49): 17 n
F-VASI 50; n ([3]; 6 mg QD, Week 24, N = 49): 8 n
T-VASI 50; n ([3]; 6 mg QD, Week 24, N = 49): 3 n
VNS score of 4 or 5, Responders n ([3]; 6 mg QD, Week 24, N = 49): 0 n
F-VASI 75; n ([3]; 6 mg QD, Week 24, N = 49, NRI): 4 n
F-VASI 75; (%) ([3]; 6 mg QD): 8.2%
DLQI LS mean change ([3]; 6 mg QD, Week 24, change from baseline, 43 patients): −1.4%
HADS Anxiety LS mean change [3, 8]: −0.7%
HADS Depression LS mean change [3, 8]: 0.2%
Percent CFB in F-VASI ([3]; 6 mg, Week 52, As Observed, N = 38): −52.7%
Percent CFB in F-VASI ([3]; 6 mg, Week 52, Intent-to-Treat, MMRM/NRI-MI, N = 49): −52.3%
Percent CFB in F-VASI; LSMEAN (SE) ([3]; 11 mg QD oral): −35.63 (5.297) Percent
CFB in VitiQoL Total Score; LSMEAN (SE) ([3]; 11 mg QD, Week 24): −3.7 (2.30)
Percent CFB in T-VASI; LSMEAN (SE) ([3]; 11 mg QD, Week 24): −17.26 (3.414) Percent
T-VASI 50; (%) ([3]; 11 mg QD, Week 24): 6.4%
Δ vs PBO, CFB in VitiQoL Total Score ([3]; 11 mg QD, Week 24): Δ = 1.9;
Δ vs PBO, F-VASI 50 ([3]; 11 mg QD, Week 24): Δ = 29.3;
Δ vs PBO, F-VASI 75 ([3]; 11 mg QD, Week 24): Δ = 17.8;
Δ vs PBO, Percent CFB in F-VASI ([3]; 11 mg QD, Week 24): Δ = −21.27;
Δ vs PBO, Percent CFB in T-VASI ([3]; 11 mg QD, Week 24): Δ = −10.84;
Δ vs PBO, T-VASI 50 ([3]; 11 mg QD, Week 24): Δ = 3.8;
Δ vs PBO, much better or a little better on PaGIC ([3]; 11 mg QD, Week 24): Δ = 38.5%
Δ vs PBO, much better or a little better on PhGIC ([3]; 11 mg QD, Week 24): Δ = 37.8%
Achieving much better or a little better on PaGIC (PaGIC-V score of 1 or 2), responders n ([3]; 11 mg QD, Week 24, N = 47): 26 n
F-VASI 50; n ([3]; 11 mg QD, Week 24, N = 47): 18 n
T-VASI 50; n ([3]; 11 mg QD, Week 24, N = 47): 3 n
VNS score of 4 or 5, Responders n ([3]; 11 mg QD, Week 24, N = 47): 0 n
F-VASI 75; n ([3]; 11 mg QD, Week 24, N = 47, NRI): 9 n
F-VASI 75; (%) ([3]; 11 mg QD): 19.1%
DLQI LS mean change ([3]; 11 mg QD, Week 24, change from baseline, 42 patients): −1.2%
VitiQoL LS mean change ([3]; 11 mg QD, Week 24, change from baseline, 44 patients): −3.7%
HADS Anxiety LS mean change [3, 9]: 0.0%
HADS Depression LS mean change [3, 9]: −0.3%
Percent CFB in F-VASI ([3]; 11 mg, Week 52, As Observed, N = 38): −64.8%
Percent CFB in F-VASI ([3]; 11 mg, Week 52, Intent-to-Treat, MMRM/NRI-MI, N = 47): −62.8%
Percent CFB in F-VASI; LSMEAN (SE) ([3]; 22 mg QD oral): −33.96 (5.793) Percent
Percent CFB in T-VASI; LSMEAN (SE) ([3]; 22 mg QD, Week 24): −20.69 (3.731) Percent
T-VASI 50; (%) ([3]; 22 mg QD, Week 24): 11.6%
VNS score of 4 or 5, Responders (%) ([3]; 22 mg QD, Week 24): (11.6) %
Δ vs PBO, CFB in VitiQoL Total Score ([3]; 22 mg QD, Week 24): Δ = −1.1;
Δ vs PBO, F-VASI 50 ([3]; 22 mg QD, Week 24): Δ = 28.7;
Δ vs PBO, F-VASI 75 ([3]; 22 mg QD, Week 24): Δ = 11.7;
Δ vs PBO, Percent CFB in F-VASI ([3]; 22 mg QD, Week 24): Δ = −19.60;
Δ vs PBO, Percent CFB in T-VASI ([3]; 22 mg QD, Week 24): Δ = −14.27;
Δ vs PBO, T-VASI 50 ([3]; 22 mg QD, Week 24): Δ = 9.1;
Δ vs PBO, much better or a little better on PaGIC ([3]; 22 mg QD, Week 24): Δ = 41.1%
Δ vs PBO, much better or a little better on PhGIC ([3]; 22 mg QD, Week 24): Δ = 32%
Achieving much better or a little better on PaGIC (PaGIC-V score of 1 or 2), responders n ([3]; 22 mg QD, Week 24, N = 43): 26 n
F-VASI 50; n ([3]; 22 mg QD, Week 24, N = 43): 17 n
T-VASI 50; n ([3]; 22 mg QD, Week 24, N = 43): 5 n
VNS score of 4 or 5, Responders n ([3]; 22 mg QD, Week 24, N = 43): 5 n
F-VASI 75; n ([3]; 22 mg QD, Week 24, N = 43, NRI): 6 n
F-VASI 75; (%) ([3]; 22 mg QD): 14.0%
HADS Anxiety LS mean change [3, 10]: −0.3%
HADS Depression LS mean change [3, 10]: −0.1%
VitiQoL LS mean change [3, 10]: −6.6%
DLQI LS mean change ([3]; 22 mg QD, Week 24, change from baseline, 35 patients): −2.2%
Percent CFB in F-VASI ([3]; 22 mg, Week 52, As Observed, N = 29): −60.8%
Percent CFB in F-VASI ([3]; 22 mg, Week 52, Intent-to-Treat, MMRM/NRI-MI, N = 43): −59.2%
